US20160137630A1, “INDUCTION OF GATA2 BY HDAC1 AND HDAC2 INHIBITORS” (ACETYLON PHARMACEUTICALS, INC., priority 2014, published 2016)
Entries after “also recorded” stand apart in the source; their conditions may differ. Where two headings read alike, the source gives them in different places.

Legend:
HDAC2 = HDAC2 (Homo sapiens, UniProt Q92769); assay: in vitro biochemical HDAC inhibition assay; conditions: Table 3; read-out: IC50 HDAC2
HDAC1 = HDAC1 (Homo sapiens, UniProt Q13547); assay: in vitro biochemical HDAC inhibition assay; conditions: Table 3; read-out: IC50 HDAC1
Sequence of HDAC1 (Q13547 whole entry): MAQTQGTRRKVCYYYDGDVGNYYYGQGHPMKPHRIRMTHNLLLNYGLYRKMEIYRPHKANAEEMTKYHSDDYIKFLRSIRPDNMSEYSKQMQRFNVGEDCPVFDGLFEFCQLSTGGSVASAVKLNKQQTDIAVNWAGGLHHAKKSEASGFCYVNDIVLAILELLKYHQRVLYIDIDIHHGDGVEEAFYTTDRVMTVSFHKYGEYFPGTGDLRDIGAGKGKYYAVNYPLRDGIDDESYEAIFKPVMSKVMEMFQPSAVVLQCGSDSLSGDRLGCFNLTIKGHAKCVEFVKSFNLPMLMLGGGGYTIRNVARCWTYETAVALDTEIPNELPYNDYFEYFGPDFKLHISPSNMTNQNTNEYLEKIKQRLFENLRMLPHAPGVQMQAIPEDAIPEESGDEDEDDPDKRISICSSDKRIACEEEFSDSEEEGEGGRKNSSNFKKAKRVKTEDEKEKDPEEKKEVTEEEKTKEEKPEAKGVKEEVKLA

HDAC6 = HDAC6 (Homo sapiens, UniProt Q9UBN7); assay: in vitro biochemical HDAC inhibition assay
Sequence of HDAC6 (Q9UBN7 whole entry): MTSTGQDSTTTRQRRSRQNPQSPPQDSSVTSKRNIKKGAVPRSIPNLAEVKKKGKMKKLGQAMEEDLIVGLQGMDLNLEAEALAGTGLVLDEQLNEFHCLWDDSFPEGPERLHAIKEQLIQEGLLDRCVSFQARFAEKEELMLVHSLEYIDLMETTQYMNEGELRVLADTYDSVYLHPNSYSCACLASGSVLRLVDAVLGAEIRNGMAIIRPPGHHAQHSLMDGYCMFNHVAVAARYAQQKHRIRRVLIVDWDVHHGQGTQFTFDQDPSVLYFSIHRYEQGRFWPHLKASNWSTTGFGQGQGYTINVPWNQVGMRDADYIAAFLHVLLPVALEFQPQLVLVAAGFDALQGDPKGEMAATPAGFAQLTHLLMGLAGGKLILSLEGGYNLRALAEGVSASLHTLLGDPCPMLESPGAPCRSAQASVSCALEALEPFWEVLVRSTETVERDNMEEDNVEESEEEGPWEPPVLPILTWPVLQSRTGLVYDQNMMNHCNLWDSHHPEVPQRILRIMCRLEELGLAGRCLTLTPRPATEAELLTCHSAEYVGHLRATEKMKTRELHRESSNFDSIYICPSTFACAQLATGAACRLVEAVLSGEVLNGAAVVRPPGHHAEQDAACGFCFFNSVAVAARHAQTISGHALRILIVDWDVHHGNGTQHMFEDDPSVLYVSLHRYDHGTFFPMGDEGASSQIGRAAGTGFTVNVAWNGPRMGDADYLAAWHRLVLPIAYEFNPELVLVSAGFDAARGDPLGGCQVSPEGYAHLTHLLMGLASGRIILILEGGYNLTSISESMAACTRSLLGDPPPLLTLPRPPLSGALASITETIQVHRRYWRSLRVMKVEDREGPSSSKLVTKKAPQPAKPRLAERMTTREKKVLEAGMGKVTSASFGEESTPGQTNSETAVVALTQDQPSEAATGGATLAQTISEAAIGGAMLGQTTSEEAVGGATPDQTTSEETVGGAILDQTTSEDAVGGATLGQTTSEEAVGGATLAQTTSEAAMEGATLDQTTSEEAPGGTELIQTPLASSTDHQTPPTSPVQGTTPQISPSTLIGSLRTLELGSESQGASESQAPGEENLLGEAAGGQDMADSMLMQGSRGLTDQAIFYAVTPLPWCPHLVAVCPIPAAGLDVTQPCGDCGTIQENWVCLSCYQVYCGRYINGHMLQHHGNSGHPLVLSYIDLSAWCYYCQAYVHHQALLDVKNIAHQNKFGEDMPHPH

HDAC3 = HDAC3 (Homo sapiens, UniProt O15379); assay: in vitro biochemical HDAC inhibition assay; conditions: Table 3; read-out: IC50 HDAC3
Sequence of HDAC3 (O15379 whole entry): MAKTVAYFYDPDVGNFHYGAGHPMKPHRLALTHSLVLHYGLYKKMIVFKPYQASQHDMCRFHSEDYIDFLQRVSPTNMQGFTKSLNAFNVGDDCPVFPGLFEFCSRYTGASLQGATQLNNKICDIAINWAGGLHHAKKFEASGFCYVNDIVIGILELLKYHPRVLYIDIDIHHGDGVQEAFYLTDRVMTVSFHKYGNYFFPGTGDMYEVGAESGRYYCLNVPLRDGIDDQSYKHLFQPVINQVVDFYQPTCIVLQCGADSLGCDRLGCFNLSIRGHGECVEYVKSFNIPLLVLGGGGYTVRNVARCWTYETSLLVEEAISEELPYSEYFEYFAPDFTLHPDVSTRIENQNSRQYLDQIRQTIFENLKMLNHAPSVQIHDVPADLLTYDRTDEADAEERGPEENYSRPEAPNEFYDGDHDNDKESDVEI
Sequence of HDAC3 (Q9Y618 395-489 partner limits assumed): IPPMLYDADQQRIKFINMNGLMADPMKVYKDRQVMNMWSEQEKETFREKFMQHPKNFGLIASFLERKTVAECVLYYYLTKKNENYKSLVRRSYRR

HDACs 4-9 = assay: in vitro HDAC inhibition assay, HDACs 4-9; format: biochemical; conditions: concentrations as high as 20 μM; FIG. 20
[1] = test system: human bone marrow-derived CD34+ cells; assay: viability of expanded CD34+ cells; format: cell-based; conditions: Homo sapiens, 48 h; 2 days of treatment; FIG. 19A
Excerpt: This possibility was first tested by measuring the viability of expanded human bone marrow-derived CD34+ cells, composed of primitive and more differentiated hematopoietic progenitors of multiple lineages, following 2 days of treatment with compound.

HbG mRNA = assay: % HbG mRNA induction in 2-phase culture systems CS1 and CS2; format: cell-based, human
Excerpt: Then, the cells were differentiated by exposure to either vehicle (control) or Compound 001. RNA samples of HbG were taken at days 0, 3, 5, and 8. […] Staining cells with a FITC-conjugated anti-HbF antibody and flow cytometry was used to measure induction of fetal hemoglobin.

[2] = test system: Human CD34+ bone marrow cells; assay: erythroid maturation in CS1 by CD71/GlyA flow cytometry; format: cell-based; conditions: 1 μM, first 5 days
Excerpt: To investigate the effects of HDAC inhibition on later stages of erythroid maturation, differentiation in CS1 was followed by flow cytometry using fluorescent antibodies against the transferrin receptor (CD71) and glycophorin A (GlyA). […] The majority of vehicle control cells continued to differentiate, becoming CD71^posGlyA^pos by day 8. […] CD71^posGlyA^mid cells are equivalent to proerythroblasts (ProE), while CD71^posGlyA^pos cells include the more differentiated basophilic and polychromatic erythroblasts.

MV4-11 cells = assay: GATA2 expression in MV4-11 AML cell line; format: cell-based; conditions: 1 uM single agent, 48 h and 72 h
Protocol: FIG. 24. […] (A-B) MV4-11 cells were plated at 2×10^5 cells/ml at indicated doses for 48 h and 72 h. RNA was prepared and analyzed for GATA2 and GAPDH as internal control.

Sequence of HDAC2 (Q92769 whole entry): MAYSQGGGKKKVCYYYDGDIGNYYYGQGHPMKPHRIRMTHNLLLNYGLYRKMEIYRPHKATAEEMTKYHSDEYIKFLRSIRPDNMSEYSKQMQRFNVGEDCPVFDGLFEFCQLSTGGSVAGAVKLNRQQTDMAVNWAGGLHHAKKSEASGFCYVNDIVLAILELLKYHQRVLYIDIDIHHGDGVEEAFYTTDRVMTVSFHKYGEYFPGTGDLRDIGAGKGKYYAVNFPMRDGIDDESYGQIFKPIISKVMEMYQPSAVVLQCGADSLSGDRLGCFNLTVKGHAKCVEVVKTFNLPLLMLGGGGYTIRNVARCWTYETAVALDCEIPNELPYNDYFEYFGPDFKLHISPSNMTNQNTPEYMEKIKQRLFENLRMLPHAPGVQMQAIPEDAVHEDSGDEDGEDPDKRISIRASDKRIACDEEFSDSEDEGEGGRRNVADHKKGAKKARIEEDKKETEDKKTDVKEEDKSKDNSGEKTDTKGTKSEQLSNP

O=C(NO)c1cnc(NC2(c3ccccc3)CCN(C(=O)Nc3ccc(Cl)c(Cl)c3)CC2)nc1 [Compound 1011]
IC50 (HDAC2): 177 nM
IC50 (HDAC1): 110 nM
IC50 (HDAC6; read-out: IC50 HDAC6, Table 3): 14 nM
IC50 (HDAC3): 2160 nM

Nc1ccccc1NC(=O)c1ccc(CNC(=O)OCc2cccnc2)cc1 [Entinostat, reference compound]
inhibition of HDACs 4-9 (HDACs 4-9): negligible inhibitory activity; also recorded: no inhibition
IC50 [1]: 3000 nM
% HbG (HbG mRNA; 1 μM, increased from 10%): 46%
induction in % HbG (HbG mRNA; differentiation phase, both culture systems, FIG. 10B, 21A-C): dose- and time-dependent induction
erythroid differentiation (CD71/GlyA) [2]: differentiated normally

Nc1ccc(-c2cccs2)cc1NC(=O)c1ccc2c(c1)cc(C1CC1)n2CCN1CCOCC1 [Compound 005, N-(2-amino-5-(thiophen-2-yl)phenyl)-2-cyclopropyl-1-(2-morpholinoethyl)-1H-indole-5-carboxamide]
GATA2 level (MV4-11 cells): induced GATA2 level

CC(C)[C@@H](C(=O)N1CCC(C)(Nc2ncc(C(=O)NO)cn2)CC1)c1ccccc1 [Compound 1027]
IC50 (HDAC2): 103 nM
IC50 (HDAC1): 130 nM
IC50 (HDAC6): 12 nM
IC50 (HDAC3): 422 nM

Nc1ncn([C@@H]2O[C@H](CO)[C@@H](O)[C@H]2O)c(=O)n1 [Azacitidine, azacitidine, reference compound]
GATA2 level (MV4-11 cells): induced GATA2 level
